Test results from patent publication EP1501797B1, “3-(SUBSTITUTED AMINO)-1H-INDOLE-2-CARBOXYLIC ACID ESTER AND 3-(SUBSTITUTED AMINO)-BENZO[B]THIOPHENE-2-CARBOXYLIC ACID ESTER DERIVATIVES AS INTERLEUKIN-4 GENE EXPRESSION INHIBITORS” (Aventis Pharmaceuticals Inc., priority 2002, dated 2003).
Structures can show the parent of a compound that is named as a salt. Starred links: 1 amine or outer side, 2 acyl side, 3 side chain; linkers in the order of their positions; H or OH if unused. Positions of bridges follow the written chain, without caps; N, C: chain ends. Non-standard residues stand in square brackets, D forms with d. Residues, ends and D or L forms follow the SMILES beside them. Chains are numbered I, II in the order given. Actinocin(9to1) = Cc1c2oc3c(C)ccc(C(=O)[*:1])c3nc-2c(C(=O)[*:2])c(N)c1=O; NMeV = CN[C@H](C(=O)O)C(C)C; Sar = CNCC(=O)O

Experiments:
IL-4 [1] = assay: Human primary Th2 cells, anti-CD3/anti-CD28 activated, IL-4 ELISA; assay type: cell-based; conditions: human primary Th2 cells, anti-CD3 and anti-CD28 (Table 5)
Protocol: (§1) Briefly, CD4^+CD45RA^+ T cells, isolated from donor peripheral blood mononuclear cells of healthy donors, are educated in the presence of anti-CD3/CD28 antibodies and various growth factors to obtain either a Thl-like or Th2-like phenotypes as determined by the known cytokine profiles of these two cell types.
(§2) Peripheral blood mononuclear cells (PBMC) are prepared from human blood by Ficoll-Hypacque (Pharmacia). The cells are washed two times in Hanks balanced salt solution (HBSS) and counted.
(§3) Naive T cells (CD4^+/CD45RA ) are prepared by negative selection method using following antibodies and Dynabeads: anti-CD8, anti-HLA-DR, (where HLA means human leucocyte antigen) anti-CD14, anti-CD16, anti-CD19, anti-CD45RO antibodies (all from R&D Systems, 1-2 µg/ml) are added to the cells, and the cells are kept on ice for 30 min. The cells are washed two times in HBSS, and goat anti- mouse Ig-beads, (bead:target ratio, 5:1) are added. The cells and beads are slowly rotated at 4°C for 20 min. (following the protocol supplied from Dynal). The supernatant is removed and fresh goat anti-mouse Ig-beads are added to the supernatant, which is slowly rotated at 4°C for 20 min. The cells are counted and phenotypically characterized by flow cytometric analysis.
(§4) CD4^+/CD45RA^+ cells at a density of 10^6/ml in RPMI, is prepared and added to RPMI medium containing 10% Hyclone serum/ glutamine and 1-2 µg/ml anti-CD28 Ab. The cells are split in two aliquots. For Th1 cells: anti-IL-4 Ab (1-2 µg/ml), IFN-γ (1 µg/ml, or 5000 units/ml) are added to the wells. For Th2 cells: IL-4 (100-200 ng/ml), anti-IFN-γ neutralizing Ab (1-2 µg/ml), anti-IL-12 neutralizing Ab (1-2 µg/ml) are added into the wells. […] The cells are transferred to fresh wells and grown in 200 units/ml IL-2 for 2 weeks by feeding them every other day with IL-2 containing medium and splitting the cultures 1:2 or 1:3 as needed. The degree of polarization is determined by intracellular staining of cells with anti-IFN-γ and anti-IL-4 antibodies from Pharmingen, and using flow cytometry from Becton Dickinson (BD), according to manufacturers description. The cells are stimulated with PHA and alloantigens at day 14 and 28 as described below. Eight days after the second allostimulation the cells can be used for compound screening or frozen for future use. For compound testing, large quantities of Th1 and Th2 cells derived from a given donor (NYTh1 and NYTh2) were expanded and frozen as aliquots in liquid nitrogen. The cells are thawed and cultured as and when needed. The thawed cells are stimulated with alloantigen/PHA combination. The cells are used for compound screening after 8-10 days in culture.
(§5) Re-stimulation by allogeneic cells: Human PBMCs, to be used as alloantigens, are isolated from freshly drawn blood by Ficoll separation. […] Cells are counted and diluted to a final concentration of 2 x 10^6/ml in medium containing 10 µg/ml PHA and 200 units/ml IL-2.
(§6) Ninetysix well Falcon tissue culture plates (Fisher Scientific) are coated with 100 microliters per well of 10 µg/ml anti-CD3 (PharMingen) antibody in phosphate buffered saline (PBS) and stored at 4°C one day before the experiment.
(§7) On the day of assay, anti-CD3 antibody coated plates are washed with PBS once to remove all soluble anti-CD3 antibody. […] All compounds and controls are assayed in triplicates.

IL-5 = assay: Human primary Th2 cells, anti-CD3/anti-CD28 activated, IL-5 ELISA; assay type: cell-based; conditions: human primary Th2 cells, anti-CD3 and anti-CD28 (Table 5)
Protocol: as §1, §2, §3, §4, §5, §6, §7

IL-13 = assay: Human primary Th2 cells, anti-CD3/anti-CD28 activated, IL-13 ELISA; assay type: cell-based; conditions: human primary Th2 cells, anti-CD3 and anti-CD28 (Table 5)
Protocol: as §1, §2, §3, §4, §5, §6, §7

IFN-γ = assay: Human primary Th2 cells, anti-CD3/anti-CD28 activated, IFN-γ ELISA; assay type: cell-based; conditions: human primary Th2 cells, anti-CD3 and anti-CD28 (Table 5)
Protocol: as §1, §2, §3, §4, §5, §6, §7

Human Th2 cells = assay: Human primary Th2 cells, proliferation (viability, MTS assay); assay type: cell-based; conditions: human primary Th2 cells, anti-CD3 and anti-CD28 (Table 5); read-out: Prolif. IC50
Protocol: as §1, §2, §3, §4, §5, §6, §7

IL-4 [2] = assay: In vivo ovalbumin (OVA) mouse model, BALF IL-4; parameters: species or system mice
Protocol: This model is designed to determine the ability of a test article to modulate an antigen-induced pulmonary inflammatory cell accumulation in sensitized Balb/c mice from Charles River Laboratories. The mice are given a two week time period from arrival date prior to sensitizations.
On days 0, 7, 14, each animal is injected intraperitoneal (i.p.) with a 0.2 ml Ovalbumin Hydragel solution. Each animal receives 10 µg of Ovalbumin in 0.2 mL of Hydragel, aluminum hydroxide adsorptive gel containing 2% aluminum oxide. […] On day 22, BALF samples are collected from one group of animals and used for cytokine analysis. On day 24, BALF is obtained from a second group of animals and used for differential cell counts.
Test System: Female Babl/cJ mice (Jackson Laboratories), approximately 6-9 weeks old, each weighing approximately 20 to 25 grams, are divided into ten animals per group.
Sensitization Regimen: Mice are sensitized by an intraperitoneal injection of 10 µg ovalbumin (OVA) mixed in 4 mg aluminum hydroxide Al(OH)3 gel suspension in 0.2 ml sterile saline on Days 0, 7 and 14. This suspension is prepared one hour before intraperitoneal injection into each mouse. The animals are ready for OVA challenge on Day 21.
Antigen Challenge: Animals are exposed to aerosolized OVA on day 21 (5% w/v in sterile saline) for 20 minutes. The aerosol is generated by a PARI-Master nebulizer, the outlet of which is connected to a small Plexiglas® chamber containing the animals. Bronchoalveolar lavage is performed on Day 22.
Method of Study Performance: On day 24, 72 hours following aerosol OVA exposure, a separate group of animals are anesthetized with urethane (0.15 - 0.2 gm/kg) and the trachea is exposed and cannulated. Lungs are lavaged with 2 x 0.5 ml Hank's balanced salt solution without Ca^2+ and Mg^2+ (HBSS; Gibco, Grand Island, NY) containing 0.1% EDTA. Lavage fluid is recovered after 30 sec by gentle aspiration and pooled for each animal. Samples are centrifuged at 2000 rpm for 15 minutes at 5°C. After centrifugation, individual supernatants are stored frozen at -80°C. The resulting pellet is resuspended in 0.5 ml of HBSS containing 0.1% EDTA. Total cells and eosinophils are determined using a Technicon Hl and cytoslides, respectively.
Administration of the Test/Control Article: The test article and vehicle dosing preparations are administered once to each anesthetized mouse intranasally using a 200 µl pipette at 30-60 minutes prior to OVA challenge. Each animal receives 50 µl (25 µl/nostril) at each time point. Method of Euthanasia: Urethane overdose at in-life completion.
Compounds administered 30 minutes before aerosol ovalbumin challenge in ova sensitized mice. BALF harvested 24 hours after aerosol challenge. N = 6/group.
Mice (12 animals per group) are sensitized with 0.2 ml of an AlOH3 hydrogel suspension (2% AlOH3) containing 50 µg/ml ovalbumin on days 0, 7 and 14. […] The glucocorticosteroid budesonide (10 mg/kg) is included as a control. All compounds are given in 0.5% methylcellulose/0.2% Tween 80, intranasally (50µl). After the OVA challenge for 24 hours, the mice underwent bronchoalveolar lavage and IL-4 and IL-13 levels in the BALF are determined by ELISA. Another group of mice underwent bronchoalveolar lavage (72 hours after treatment) to determine the number of the eosinophils (*p<0.05, **p<0.01).
Compounds are given (30 mg/kg), intranasally, once, 30 min before OVA challenge unless noted otherwise. BAL fluids are collected 24 hours after OVA challenge and the cytokine levels are measured by standard ELISAs.

eosinophils = assay: In vivo ovalbumin (OVA) mouse model, BALF eosinophils; parameters: species or system mice; conditions: i.n.
Protocol: On days 0, 7, 14, each animal is injected intraperitoneal (i.p.) with a 0.2 ml Ovalbumin Hydragel solution. Each animal receives 10 µg of Ovalbumin in 0.2 mL of Hydragel, aluminum hydroxide adsorptive gel containing 2% aluminum oxide. […] On day 24, BALF is obtained from a second group of animals and used for differential cell counts. […]
Sensitization Regimen: Mice are sensitized by an intraperitoneal injection of 10 µg ovalbumin (OVA) mixed in 4 mg aluminum hydroxide Al(OH)3 gel suspension in 0.2 ml sterile saline on Days 0, 7 and 14. […] The animals are ready for OVA challenge on Day 21. […]
Method of Study Performance: On day 24, 72 hours following aerosol OVA exposure, a separate group of animals are anesthetized with urethane (0.15 - 0.2 gm/kg) and the trachea is exposed and cannulated. […] Total cells and eosinophils are determined using a Technicon Hl and cytoslides, respectively. […]
Compounds are given (30 mg/kg), intranasally, once, 30 min before OVA challenge unless noted otherwise. […] From a parallel set of animals, BAL are collected at 48 hours and the number of eosinophils are determined.

Swiss 3T3 fibroblasts = assay: In vitro cytotoxicity assay on contact inhibited 3T3 fibroblasts (MTS); conditions: for % control (viability of quiescent 3T3 cells): 2 day incubation
Protocol: A third assay utilized in the present invention involves an in vitro cytotoxicity assay. This assay is used to further characterize the compounds in order to assess toxic activities of compounds on contact inhibited, non-dividing 3T3 fibroblasts. Other toxicity assays may be used.
Contact inhibited Swiss 3T3 fibroblasts are purchased from ATCC. The cells are maintained in 1640 RPMI supplemented with 10% fetal bovine serum (Gibco).
On day of assay, cells are detached from flasks by trypsinization, washed in medium and counted. 100 microliters of 2.5 x 10^4 cells per well are plated into Falcon brand 96 well tissue culture plates and cells incubated at 37°C in presence of 5% CO2 for 2 days or until confluent.
[…] All compound dilutions are assayed in triplicate. […] Cells are returned to the incubator for 2 days.
After 2 day incubation, the 3T3 cells are assayed for viability using an MTS Assay Kit (Promega). Media is added to blank wells for background calculations. After 2 hours incubation in kit reagent, the optical density at 490 nm for each compound and control is determined by plate reader.
Results are expressed as percent cytotoxicity, i.e., (mean OD of compound wells - background OD)/ (mean OD of controls - background).
Note that starting concentration of CsA was 1 µM. […]

Question: With O=C(O)c1[nH]c2ccccc2c1Nc1ccncc1 [Example 28 (maleate salt)] as the compound, how does the IC50 (IL-4 [1]) read?
Answer: The IC50 was 0.24 µM.

Question: What about the IC50 (IL-5) of the same compound?
Answer: Its IC50 is greater than 10 µM.

Question: And the IC50 (IL-13)?
Answer: Its IC50 is roughly 10 µM.

Question: And the IC50 (IFN-γ)?
Answer: Its IC50 is greater than 10 µM.

Question: What about the IC50 (Human Th2 cells) of the same compound?
Answer: The IC50 was greater than 10 µM.

Question: What about the “IL-4 % ctl At 24hours” value (IL-4 [2]; i.n., 10 mg/kg) of the same compound?
Answer: The value was 57 % ctl.

Question: What about the “IL-4 % ctl At 24hours” value (IL-4 [2]; i.n., 12 mg/kg) of the same compound?
Answer: Its value is 50 % ctl.

Question: And the “IL-4 % ctl At 24hours” value (IL-4 [2]; i.n., 30 mg/kg, once, 30 min before OVA challenge)?
Answer: Its value is 34 % ctl.

Question: What about the “IL-4 % ctl At 24hours” value (IL-4 [2]; i.p., 30 mg/kg) of the same compound?
Answer: The value was 43 % ctl.

Question: What about the “Eos % ctl At 72hours” value (eosinophils; 10 mg/kg) of the same compound?
Answer: The value was 53 % ctl.

Question: What about the “Eos % ctl At 72hours” value (eosinophils; 30 mg/kg) of the same compound?
Answer: The value was 28 % ctl.

Question: Which results are given for Cc1c2oc3c(C)ccc(C(=O)N[C@@H]4C(=O)N[C@H](C(C)C)C(=O)N5CCC[C@H]5C(=O)N(C)CC(=O)N(C)[C@@H](C(C)C)C(=O)O[C@@H]4C)c3nc-2c(C(=O)N[C@@H]2C(=O)N[C@H](C(C)C)C(=O)N3CCC[C@H]3C(=O)N(C)CC(=O)N(C)[C@@H](C(C)C)C(=O)O[C@@H]2C)c(N)c1=O [Actinomycin D] (I: T[dV]P[Sar][NMeV] / II: T[dV]P[Sar][NMeV]; ester I:1-I:C, II:1-II:C; linker I:N-II:N via Actinocin(9to1))?
Answer: % control (viability of quiescent 3T3 cells) (Swiss 3T3 fibroblasts; 0.001 µM): 79.0 % control; % control (viability of quiescent 3T3 cells) (Swiss 3T3 fibroblasts; 0.003 µM): 74.9 % control; % control (viability of quiescent 3T3 cells) (Swiss 3T3 fibroblasts; 0.01 µM): 67.2 % control; % control (viability of quiescent 3T3 cells) (Swiss 3T3 fibroblasts; 0.03 µM): 33.9 % control; % control (viability of quiescent 3T3 cells) (Swiss 3T3 fibroblasts; 0.1 µM): 28.2 % control; % control (viability of quiescent 3T3 cells) (Swiss 3T3 fibroblasts; 3 µM): 29.7 % control; % control (viability of quiescent 3T3 cells) (Swiss 3T3 fibroblasts; 10 µM): 16.8 % control; toxic effects on the viability of quiescent 3T3 cells (in words) (Swiss 3T3 fibroblasts; non-dividing 3T3 cells): effected the viability
